From patent US20230116399A1, “Tumor Homing Statin Derivatives” (Da Zen Theranostics, Inc., priority 2019, published 2023)

How the values were obtained:
[1] = system: H446 human small cell lung cancer (SCLC) cells; assay: Mouse xenograft model, H446 SCLC; type: in vivo, mice; conditions: 2.8 mg/kg, twice a week via i.p. injection, 52 days
Procedure: Example 10: THSD (ALSD and ELSD, respectively) are tested in vivo in a mouse xenograft model for human lung cancer. The example is essentially performed as described for example 9 with the following modifications: human SCLC H446 cancer cells are used, and the tested agents include two statin conjugates (compounds of formula FId/compound 14 or “DZ2b” and FIId/compound 7 or “DZ2a”, respectively, designated “DZ-SIM-Ester” or “DZ-SIM-Amide” in FIG. 10), and a non-statin conjugate (“DZ-DHA”). SCLC H446 cells (1.5×10^6) are subcutaneously implanted on the bilateral flanks of athymic nude mice at age of 5 weeks. 10 days post cell implantation, mice are treated with DZ1 (2.8 mg/kg), SIM (2 mg/kg), DZ1-SIM-Amide/compound 7 or DZ1-SIM-Ester/compound 14 (4 mg/kg), and DZ1-DHA (4 mg/kg, DZ1-dihydroartemisinin ester “DZ1-DHA”, as shown in FIG. 11), twice a week via i.p. injection. (A) Tumor sizes are measured by caliper every four days during the treatment period of 52 days, and volumes are calculated using formula […] as described in example 9 above. Confidence levels are indicated as *P<0.05, **P<0.01, ***P<0.0005.

[2] = system: RhoA/B in H-1975 human lung cancer tumors; assay: RhoA/B membrane staining of tumor tissue, H-1975 mouse model; type: in vivo, mice; conditions: 5 mg/kg
Procedure: RhoA/RhoB membrane staining of tumor tissue of a H-1975 human lung cancer cell mouse model is performed as described below, and the tumor-bearing mice are treated with a THSD (here an ALSD of formula FIId, “DZ2a”, compound 7) in comparison to the corresponding unconjugated dye (“DZ1”) and to Gefinitib (an EGFR inhibitor drug used for treatment of certain breast, lung and other cancers).
H-1975 cells, a cell model for human lung cancer that is resistant to Gefitinib (an EGFR inhibitor drug used for treatment of certain breast, lung and other cancers) are cultured as described above and injected subcutaneously into mice to develop tumors. The mice and the tumors that are formed are systemically exposed to an ALSD (here of formula FIId, “DZ2a”, compound 7) by intravenous injection. The tumor-bearing mice are treated with either Gefitinib (20 mg/kg), or with an ALSD (here of formula FIId, “DZ2a”, compound 7, 5 mg/kg), an unconjugated dye of formula III (“DZ1”, 5 mg/kg) or a combination of the ALSD with Gefitinib.
For immunostaining of tumor tissue, the animals are sacrificed by prescribed and approved euthanasia techniques. Tumor tissue (maximum thickness 3 mm) is sliced, formalin fixated, embedded into paraffin blocks which are sectioned and processed into paraffin section slides. […]

SMILES: CC1(C)C(/C=C/C2=C(Cl)C(=C/C=C3/N(CCCCCC(=O)O)c4ccccc4C3(C)C)/CCC2)=[N+](CCCCS(=O)(=O)[O-])c2ccccc21 [DZ1]
- mean tumor volume / growth inhibition [1]: steep increase in tumor volume
- RhoA/B staining of tumor cell membranes [2]: staining persists in the membranes
